Columns and labels:
[1] = Cytotoxicity against human HuH7 cells by colorimetric proliferation assay; type: cell-based, Huh-7
[2] = Inhibition of recombinant full length HCV genotype 1b NS3/4A protease by FRET assay; design: species or system Hepatitis C virus subtype 1b
[3] = system: Hepatitis C virus; test: Antiviral activity against HCV genotype 1b infected in human HuH7 cells after 3 days by luciferase assay; type: functional, organism-based, Hepacivirus hominis; conditions: Huh-7, 72 h
[4] = Intrinsic clearance in monkey liver microsomes; type: ADME, Macaca mulatta; conditions: rhesus monkey, read-out: CLH
[5] = Intrinsic clearance in human liver microsomes; type: ADME; conditions: read-out: CLH
[6] = Intrinsic clearance in rat liver microsomes; type: ADME; conditions: read-out: CLH
[7] = Intrinsic clearance in rat cryopreserved hepatocytes assessed per 10^6 cells; type: ADME, cell-based, Hepatocyte; conditions: read-out: CLH
[8] = Half life in rat liver microsomes; type: ADME
[9] = Cmax in Sprague-Dawley rat plasma at 10 mg/kg, po administered as single dose measured after 24 hrs; type: ADME, organism-based; design: dose 10 mg/kg, route oral
[10] = Half life in Sprague-Dawley rat at 2 mg/kg, iv administered as single dose; type: ADME, organism-based; conditions: in vivo
[11] = AUCt in Sprague-Dawley rat at 10 mg/kg, po administered as single dose; type: ADME, organism-based; conditions: in vivo
[12] = Half life in Sprague-Dawley rat at 10 mg/kg, po administered as single dose; type: ADME, organism-based; conditions: in vivo
[13] = Tmax in Sprague-Dawley rat at 10 mg/kg, po administered as single dose; type: ADME, organism-based; conditions: in vivo
[14] = Tmax in Sprague-Dawley rat at 2 mg/kg, iv administered as single dose; type: ADME, organism-based; conditions: in vivo
[15] = AUC (infinity) in Sprague-Dawley rat at 2 mg/kg, iv administered as single dose; type: ADME, organism-based; design: dose 2 mg/kg, route intravenous, time infinity; conditions: in vivo
[16] = Oral bioavailability in Sprague-Dawley rat at 10 mg/kg administered as single dose; type: ADME, organism-based; conditions: in vivo
[17] = AUCt in Sprague-Dawley rat at 2 mg/kg, iv administered as single dose; type: ADME, organism-based; conditions: in vivo
[18] = Cmax in Sprague-Dawley rat plasma at 2 mg/kg, iv administered as single dose measured after 8 hrs; type: ADME, organism-based; design: dose 2 mg/kg, route intravenous
[19] = AUC (infinity) in Sprague-Dawley rat at 10 mg/kg, po administered as single dose; type: ADME, organism-based; design: dose 10 mg/kg, time infinity, route oral; conditions: in vivo
[20] = Clearance in Sprague-Dawley rat at 2 mg/kg, iv administered as single dose; type: ADME, organism-based; conditions: in vivo

IC50 [2] [nM] | EC50 [3] [nM] | Compound | CC50 [1] [nM] | further results
2.3 | 56 | COc1ccc2c(O[C@H]3C[C@H]4C(=O)N(C)CCCC/C=C/[C@@H]5C[C@@]5(C(=O)NS(=O)(=O)C5(C)CC5)NC(=O)N4C3)cc(-c3nc(C(C)C)cs3)nc2c1Cl | 48500 | microsomal CLint [4]: 66.8 µL/min/mg; microsomal CLint [5]: 18.5 µL/min/mg; microsomal CLint [6]: 9.7 µL/min/mg; hepatocyte CLint [7]: 11.2 µL/min/1e6 cells; half-life [8]: 2.38 h
0.5 | 29 | COc1ccc2c(O[C@H]3C[C@H]4C(=O)N(C)CCCC/C=C/[C@@H]5C[C@@]5(C(=O)NS(=O)(=O)C5(C)CC5)NC(=O)N4C3)cc(-c3nc(C(C)C)cs3)nc2c1Br | 51200 | 
0.8 | 32 | COc1ccc2c(O[C@H]3C[C@H]4C(=O)N(C)CCCC/C=C/[C@@H]5C[C@@]5(C(=O)NS(=O)(=O)C5(C)CC5)NC(=O)N4C3)cc(-c3csc(C(C)C)n3)nc2c1Cl | 30200 | 
0.9 | 65 | COc1ccc2c(O[C@H]3C[C@H]4C(=O)N(C)CCCC/C=C/[C@@H]5C[C@@]5(C(=O)NS(=O)(=O)C5(C)CC5)NC(=O)N4C3)cc(-n3cc(C(C)C)cn3)nc2c1C | 9610 | 
0.4 | 27 | COc1ccc2c(O[C@H]3C[C@H]4C(=O)N(C)CCCC/C=C/[C@@H]5C[C@@]5(C(=O)NS(=O)(=O)C5(C)CC5)NC(=O)N4C3)cc(-n3cc(C(F)(F)F)cn3)nc2c1Cl | 21900 | 
7.3 | 593 | COc1ccc2c(O[C@H]3C[C@H]4C(=O)N(C)CCCC/C=C/[C@@H]5C[C@@]5(C(=O)NS(=O)(=O)C5(C)CC5)NC(=O)N4C3)cc(-n3cc(C(C)C)nn3)nc2c1Cl | 28500 | 
6.4 | 499 | COc1ccc2c(O[C@H]3C[C@H]4C(=O)N(C)CCCC/C=C/[C@@H]5C[C@@]5(C(=O)NS(=O)(=O)C5(C)CC5)NC(=O)N4C3)cc(C#N)nc2c1C | 55800 | 
1 | 22 | COc1ccc2c(O[C@H]3C[C@H]4C(=O)N(C)CCCC/C=C/[C@@H]5C[C@@]5(C(=O)NS(=O)(=O)C5CC5)NC(=O)N4C3)cc(-c3nc(C)cs3)nc2c1Cl | 75000 | 
0.9 | 2.7 | C#Cc1csc(-c2cc(O[C@H]3C[C@H]4C(=O)N(C)CCCC/C=C/[C@@H]5C[C@@]5(C(=O)NS(=O)(=O)C5(C)CC5)NC(=O)N4C3)c3ccc(OC)c(C)c3n2)n1 | 75000 | 
10 | 89 | COc1ccc2c(O[C@H]3C[C@H]4C(=O)N(C)CCCC/C=C/[C@@H]5C[C@@]5(C(=O)NS(=O)(=O)C5(C)CC5)NC(=O)N4C3)cc(-c3nc(C#N)cs3)nc2c1Cl | 75000 | 
0.6 | 0.2 | C#Cc1csc(-c2cc(O[C@H]3CCN4C(=O)N(C)CCCC/C=C/[C@@H]5C[C@@]5(C(=O)NS(=O)(=O)C5(C)CC5)NC(=O)[C@@H]4C3)c3ccc(OC)c(C)c3n2)n1 | > 75000 | 

The remaining lines, values behind:

Compound | IC50 [2] [nM] | EC50 [3] [nM] | CC50 [1] [nM] | further results
COc1ccc2c(O[C@H]3C[C@H]4C(=O)N(C)CCCC/C=C/[C@@H]5C[C@@]5(C(=O)NS(=O)(=O)C5(C)CC5)NC(=O)N4C3)cc(-c3nc(C(C)C)cs3)nc2c1 | 1.7 | 508 | 42700 | 
COc1ccc2c(O[C@H]3C[C@H]4C(=O)N(C)CCCC/C=C/[C@@H]5C[C@@]5(C(=O)NS(=O)(=O)C5(C)CC5)NC(=O)N4C3)cc(-c3nc(C(C)C)cs3)nc2c1C | 1.8 | 72 | > 75000 | microsomal CLint [4]: 37.8 µL/min/mg; microsomal CLint [5]: 9.8 µL/min/mg; microsomal CLint [6]: 12.6 µL/min/mg; hepatocyte CLint [7]: 12.3 µL/min/1e6 cells; half-life [8]: 1.87 h
COc1ccc2c(O[C@H]3C[C@H]4C(=O)N(C)CCCC/C=C/[C@@H]5C[C@@]5(C(=O)NS(=O)(=O)C5(C)CC5)NC(=O)N4C3)cc(-c3nc(C(C)C)cs3)nc2c1F | 3.5 | 538 | 33500 | 
COc1cc2c(O[C@H]3C[C@H]4C(=O)N(C)CCCC/C=C/[C@@H]5C[C@@]5(C(=O)NS(=O)(=O)C5(C)CC5)NC(=O)N4C3)cc(-c3nc(C(C)C)cs3)nc2cc1Cl | 8.6 | 191 | > 75000 | 
COc1ccc2c(O[C@H]3C[C@H]4C(=O)N(C)CCCC/C=C/[C@@H]5C[C@@]5(C(=O)NS(=O)(=O)C5(C)CC5)NC(=O)N4C3)cc(-c3nc(C(F)(F)F)cs3)nc2c1C | 0.5 | 13 | 75000 | microsomal CLint [4]: 46.7 µL/min/mg; Cmax [9]: 406 ng/mL; half-life [10]: 1.5 h; AUC(0-t) [11]: 2230 ng·h/mL; half-life [12]: 5.2 h; Tmax [13]: 1 h; Tmax [14]: 4.8 min; AUC(0-inf) [15]: 2570 ng·h/mL; microsomal CLint [5]: 24 µL/min/mg; microsomal CLint [6]: 11.4 µL/min/mg; bioavailability [16]: 18%; AUC(0-t) [17]: 2540 ng·h/mL; Cmax [18]: 2670 ng/mL; AUC(0-inf) [19]: 2380 ng·h/mL; clearance [20]: 13.2 mL/min/kg; hepatocyte CLint [7]: 17.4 µL/min/1e6 cells; half-life [8]: 2.03 h
COc1ccc2c(O[C@H]3C[C@H]4C(=O)N(C)CCCC/C=C/[C@@H]5C[C@@]5(C(=O)NS(=O)(=O)C5CC5)NC(=O)N4C3)cc(-c3nc(C4CC4)cs3)nc2c1Cl | 1 | 21 | 31200 | 
COc1ccc2c(O[C@H]3C[C@H]4C(=O)N(C)CCCC/C=C/[C@@H]5C[C@@]5(C(=O)NS(=O)(=O)C5(C)CC5)NC(=O)N4C3)cc(-c3nc(C4CCC4)cs3)nc2c1Cl | 1.3 | 29 | 75000 | 
COc1ccc2c(O[C@H]3C[C@H]4C(=O)N(C)CCCC/C=C/[C@@H]5C[C@@]5(C(=O)NS(=O)(=O)C5(C)CC5)NC(=O)N4C3)cc(-c3cc(C(C)C)on3)nc2c1Cl | 3.7 | 669 | 75000 | 
COc1ccc2c(O[C@H]3C[C@H]4C(=O)N(C)CCCC/C=C/[C@@H]5C[C@@]5(C(=O)NS(=O)(=O)C5(C)CC5)NC(=O)N4C3)cc(-c3csc(C(F)(F)F)n3)nc2c1Cl | 1 | 19 | 59000 | 
COc1ccc2c(O[C@H]3C[C@H]4C(=O)N(C)CCCC/C=C/[C@@H]5C[C@@]5(C(=O)NS(=O)(=O)C5CC5)NC(=O)N4C3)cc(-c3csc(C(F)(F)F)n3)nc2c1C | 0.9 | 8 | 75000 | microsomal CLint [4]: 39.9 µL/min/mg; microsomal CLint [5]: 27.1 µL/min/mg; microsomal CLint [6]: 23.7 µL/min/mg; hepatocyte CLint [7]: 30 µL/min/1e6 cells; half-life [8]: 0.983 h
C#Cc1cccc(-c2cc(O[C@H]3C[C@H]4C(=O)N(C)CCCC/C=C/[C@@H]5C[C@@]5(C(=O)NS(=O)(=O)C5(C)CC5)NC(=O)N4C3)c3ccc(OC)c(C)c3n2)c1 | 7 | 85 | 75000 | 
COc1ccc2c(O[C@H]3C[C@H]4C(=O)N(C)CCCC/C=C/[C@@H]5C[C@@]5(C(=O)NS(=O)(=O)C5CC5)NC(=O)N4C3)cc(-c3noc(C)n3)nc2c1C | 25.7 | > 750 | 75000 | 
C#Cc1csc(-c2cc(O[C@H]3C[C@H]4C(=O)N(C)CCCC/C=C/[C@@H]5C[C@@]5(C(=O)NS(=O)(=O)C5(C)CC5)NC(=O)N4C3)c3ccc(OC)c(Cl)c3n2)n1 | 0.5 | 4 | 17000 | 
C#Cc1csc(-c2cc(O[C@H]3C[C@H]4C(=O)N(C)CCCC/C=C/[C@@H]5C[C@@]5(C(=O)NS(=O)(=O)C5CC5)NC(=O)N4C3)c3ccc(OC)c(C)c3n2)n1 | 0.9 | 2.8 | 14400 | 
C=Cc1csc(-c2cc(O[C@H]3C[C@H]4C(=O)N(C)CCCC/C=C/[C@@H]5C[C@@]5(C(=O)NS(=O)(=O)C5(C)CC5)NC(=O)N4C3)c3ccc(OC)c(Cl)c3n2)n1 | 0.8 | 4 | 57100 | 
COc1ccc2c(OC[C@@H]3C[C@H]4C(=O)N(C)CCCC/C=C/[C@@H]5C[C@@]5(C(=O)NS(=O)(=O)C5(C)CC5)NC(=O)N34)cc(-c3nc(C(C)C)cs3)nc2c1C |  |  |  | microsomal CLint [4]: 500 µL/min/mg; microsomal CLint [5]: 299 µL/min/mg; microsomal CLint [6]: 364 µL/min/mg; half-life [8]: 0.0633 h
COc1ccc2c(OC[C@@H]3C[C@H]4C(=O)N(C)CCCC/C=C/[C@@H]5C[C@@]5(C(=O)NS(=O)(=O)C5(C)CC5)NC(=O)N34)cc(-c3nc(C(C)C)cs3)nc2c1Cl |  |  |  | microsomal CLint [4]: 500 µL/min/mg; microsomal CLint [5]: 472 µL/min/mg; microsomal CLint [6]: 182 µL/min/mg; half-life [8]: 0.133 h
COc1ccc2c(O[C@H]3CCN4C(=O)N(C)CCCC/C=C/[C@@H]5C[C@@]5(C(=O)NS(=O)(=O)C5CC5)NC(=O)[C@@H]4C3)cc(-c3nc(C(F)(F)F)cs3)nc2c1C | 0.4 | 0.9 | > 75000 | 
